Results reported in the supplement of paper PMC4862054.

Columns and labels:
Conditions in all cases: 72 h
BT-549 [1] = test system: BT-549
Description: (§1)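 Drug sensitivity and resistance testing (DSRT) of breast cancer cell lines in 384-well plates, 5 concentrations in 10-fold dilutions over a compound-specific 10,000-fold range. After 72 h, cytotoxicity was read by CellTox Green fluorescence and viability by CellTiter-Glo luminescence (multiplexed), normalised to DMSO and benzethonium chloride controls. EC50 is the inflection point of the fitted dose-response curve (bottom asymptote free, so it can be relative for partial curves) and is censored at the highest tested concentration. Rows with DSS 0 (no meaningful response) were excluded.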

HDQ-P1 [2] = test system: HDQ-P1
Description: as §1

CAL-148 [3] = test system: CAL-148
Description: as §1

Hs578T [4] = test system: Hs578T
Description: as §1

HCC1937 [5] = test system: HCC1937
Description: as §1

CAL-51 = test system: CAL-51
Description: as §1

BT-474 [6] = test system: BT-474
Description: as §1

MDA-MB-231 [7] = test system: MDA-MB-231
Description: as §1

HDQ-P1 [8] = test system: HDQ-P1; remark: listed apart in the source
Method in brief: (§2)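 The plates used were 384-well plates holding compound at 5 concentrations in 10-fold steps across a compound-specific 10,000-fold range, into which breast cancer cell lines were seeded in 20 µl suspension. Following 72 h incubation, CellTox Green fluorescence was read at 485/520 nm, and CellTiter-Glo luminescence was read after 10 min at room temperature. Normalisation on each plate used 0.1 % DMSO and a positive kill control. Dose-response curves gave the EC50, which was censored at the top concentration.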

CAL-148 [9] = test system: CAL-148; remark: listed apart in the source
Method in brief: as §2

MDA-MB-453 [10] = test system: MDA-MB-453
Method in brief: as §2

HCC1937 [11] = test system: HCC1937; remark: listed apart in the source
Method in brief: as §2

HCC1599 [12] = test system: HCC1599
Method in brief: as §2

CAL-85-1 = test system: CAL-85-1
Method in brief: as §2

BT-549 [13] = test system: BT-549; remark: listed apart in the source
Method in brief: (§3)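 Breast cancer cell lines in 20 µl suspension were seeded onto 384-well plates that already held compound dissolved in 5 µl medium and were incubated for 72 h. Viability was measured by adding 2.5 µl CellTiter-Blue for 2 h at 37 °C and reading fluorescence at 560/590 nm. Each plate was normalised to vehicle and a positive kill control and checked by Z'-factor. EC50 was taken from a fitted percent-inhibition dose-response curve, censored at the highest concentration, and rows with a drug sensitivity score of zero were removed.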

HCC1143 [14] = test system: HCC1143
Method in brief: as §3

MDA-MB-468 [15] = test system: MDA-MB-468
Method in brief: as §3

Hs578T [16] = test system: Hs578T; remark: listed apart in the source
Method in brief: as §3

MDA-MB-436 [17] = test system: MDA-MB-436
Method in brief: as §3

HCC1937 [18] = test system: HCC1937; remark: listed apart in the source
Method in brief: as §3

HCC1599 [19] = test system: HCC1599; remark: listed apart in the source
Method in brief: as §3

SK-BR-3 = test system: SK-BR-3
Method in brief: as §3

BT-474 [20] = test system: BT-474; remark: listed apart in the source
Method in brief: as §3

MFM-223 [21] = test system: MFM-223
Method in brief: as §3

MDA-MB-231 [22] = test system: MDA-MB-231; remark: listed apart in the source
Method in brief: as §3

CAL-120 [23] = test system: CAL-120
Method in brief: as §3

MDA-MB-468 [24] = test system: MDA-MB-468; remark: listed apart in the source
Description: as §1

MDA-MB-436 [25] = test system: MDA-MB-436; remark: listed apart in the source
Description: as §1

MDA-MB-453 [26] = test system: MDA-MB-453; remark: listed apart in the source
Description: as §1

CAL-120 [27] = test system: CAL-120; remark: listed apart in the source
Description: as §1

HCC1143 [28] = test system: HCC1143; remark: listed apart in the source
Description: as §1

MFM-223 [29] = test system: MFM-223; remark: listed apart in the source
Description: as §1

MCF-10A = test system: MCF-10A
Description: as §1

Row | Compound | EC50, CellTiter-Glo (MDA-MB-453 [10]) | EC50, CellTiter-Glo (HCC1937 [11]) | EC50, CellTiter-Glo (HCC1599 [12]) | EC50, CellTiter-Blue viability (BT-549 [13]) | EC50, CellTiter-Blue viability (HCC1143 [14]) | EC50, CellTiter-Blue viability (MDA-MB-468 [15]) | EC50, CellTiter-Blue viability (MDA-MB-436 [17]) | EC50, CellTiter-Blue viability (HCC1937 [18]) | EC50, CellTiter-Blue viability (HCC1599 [19]) | EC50, CellTiter-Blue viability (SK-BR-3) | EC50, CellTiter-Blue viability (BT-474 [20]) | EC50, CellTiter-Blue viability (MDA-MB-231 [22]) | EC50, CellTox Green (BT-549 [1]) | EC50, CellTox Green (HDQ-P1 [2]) | EC50, CellTox Green (CAL-148 [3]) | EC50, CellTox Green (Hs578T [4]) | EC50, CellTox Green (HCC1937 [5]) | EC50, CellTox Green (CAL-51) | EC50, CellTox Green (BT-474 [6]) | EC50, CellTox Green (MDA-MB-231 [7]) | EC50, CellTiter-Glo (HDQ-P1 [8]) | EC50, CellTiter-Glo (CAL-148 [9]) | EC50, CellTiter-Glo (CAL-85-1) | EC50, CellTiter-Blue viability (Hs578T [16]) | EC50, CellTiter-Blue viability (MFM-223 [21]) | EC50, CellTiter-Blue viability (CAL-120 [23]) | EC50, CellTox Green (MDA-MB-468 [24]) | EC50, CellTox Green (MDA-MB-436 [25]) | EC50, CellTox Green (MDA-MB-453 [26]) | EC50, CellTox Green (CAL-120 [27]) | EC50, CellTox Green (HCC1143 [28]) | EC50, CellTox Green (MFM-223 [29]) | EC50, CellTox Green (MCF-10A)
1 | CC/C(=C(\c1ccc(O)cc1)c1ccc(OCCN(C)C)cc1)c1ccccc1 [4-hydroxytamoxifen] | 6910 nM | 5190 nM | – | – | – | – | – | – | – | – | – | – | – | – | – | – | 1930 nM | – | – | 4260 nM | – | – | 3340 nM | – | – | – | 92.3 nM | 2800 nM | 9550 nM | 9170 nM | – | – | –
2 | CC(=O)OC[C@H]1O[C@@H]([S-])[C@H](OC(C)=O)[C@@H](OC(C)=O)[C@@H]1OC(C)=O.CCP(CC)CC.[Au+] [Auranofin] | 612 nM | 552 nM | 2110 nM | – | – | – | – | – | – | – | – | – | 712 nM | 694 nM | 2060 nM | – | 926 nM | 186 nM | 646 nM | 1330 nM | 1120 nM | 2190 nM | 723 nM | – | – | – | 412 nM | – | 1590 nM | > 2500 nM | > 2500 nM | 958 nM | –
3 | CO[C@@H](C(=O)N1Cc2[nH]nc(NC(=O)c3ccc(N4CCN(C)CC4)cc3)c2C1)c1ccccc1 [Danusertib] | – | – | – | 1130 nM | 2290 nM | 71.9 nM | 1480 nM | 344 nM | 38.1 nM | – | – | 1180 nM | > 10000 nM | 6850 nM | – | 477 nM | – | 348 nM | – | – | 7430 nM | 448 nM | – | 1040 nM | – | 335 nM | 10.2 nM | 216 nM | – | 5630 nM | – | – | > 10000 nM

The next lines start with results.

Row | EC50, CellTiter-Glo (MDA-MB-453 [10]) | EC50, CellTiter-Glo (HCC1937 [11]) | EC50, CellTiter-Glo (HCC1599 [12]) | EC50, CellTiter-Blue viability (BT-549 [13]) | EC50, CellTiter-Blue viability (HCC1143 [14]) | EC50, CellTiter-Blue viability (MDA-MB-468 [15]) | EC50, CellTiter-Blue viability (MDA-MB-436 [17]) | EC50, CellTiter-Blue viability (HCC1937 [18]) | EC50, CellTiter-Blue viability (HCC1599 [19]) | EC50, CellTiter-Blue viability (SK-BR-3) | EC50, CellTiter-Blue viability (BT-474 [20]) | EC50, CellTiter-Blue viability (MDA-MB-231 [22]) | Compound | EC50, CellTox Green (BT-549 [1]) | EC50, CellTox Green (HDQ-P1 [2]) | EC50, CellTox Green (CAL-148 [3]) | EC50, CellTox Green (Hs578T [4]) | EC50, CellTox Green (HCC1937 [5]) | EC50, CellTox Green (CAL-51) | EC50, CellTox Green (BT-474 [6]) | EC50, CellTox Green (MDA-MB-231 [7]) | EC50, CellTiter-Glo (HDQ-P1 [8]) | EC50, CellTiter-Glo (CAL-148 [9]) | EC50, CellTiter-Glo (CAL-85-1) | EC50, CellTiter-Blue viability (Hs578T [16]) | EC50, CellTiter-Blue viability (MFM-223 [21]) | EC50, CellTiter-Blue viability (CAL-120 [23]) | EC50, CellTox Green (MDA-MB-468 [24]) | EC50, CellTox Green (MDA-MB-436 [25]) | EC50, CellTox Green (MDA-MB-453 [26]) | EC50, CellTox Green (CAL-120 [27]) | EC50, CellTox Green (HCC1143 [28]) | EC50, CellTox Green (MFM-223 [29]) | EC50, CellTox Green (MCF-10A)
4 | 115 nM | 444 nM | 402 nM | 196 nM | 418 nM | 268 nM | 234 nM | 63 nM | 121 nM | 40.5 nM | 193 nM | 144 nM | COc1ccc(-c2cc3c(C)nc(N)nc3n([C@H]3CC[C@H](OCCO)CC3)c2=O)cn1 | 3870 nM | 1990 nM | 787 nM | 6070 nM | 5410 nM | 783 nM | 983 nM | 575 nM | 190 nM | 294 nM | 229 nM | 158 nM | 180 nM | 193 nM | – | – | – | – | – | – | –
5 | – | 54.7 nM | – | 58.5 nM | 34.5 nM | – | 78.5 nM | – | – | – | – | 16.8 nM | Cc1nc(Nc2ncc(C(=O)Nc3c(C)cccc3Cl)s2)cc(N2CCN(CCO)CC2)n1 [Dasatinib] | 162 nM | – | – | 277 nM | – | 10.3 nM | – | 515 nM | 18.3 nM | – | 79.4 nM | 49.7 nM | 427 nM | 56.3 nM | – | – | – | – | – | – | 599 nM
6 | 226 nM | 3130 nM | 1340 nM | 386 nM | 306 nM | 704 nM | 783 nM | 214 nM | 103 nM | 81.8 nM | 318 nM | 90.4 nM | Cc1c(CN2CCN(C(=O)[C@H](C)O)CC2)sc2c(N3CCOCC3)nc(-c3cnc(N)nc3)nc12 [GDC-0980] | – | 8340 nM | 820 nM | – | – | 2320 nM | 1390 nM | – | 452 nM | 701 nM | 628 nM | 257 nM | 139 nM | 181 nM | – | – | – | – | 1460 nM | 1000 nM | –
